Test results reported in patent US10662195B2, “Protein kinase conjugates and inhibitors” (Celgene Avilomics Research, Inc., priority 2009, dated 2020).

Tests used:
[1] = target: FAK (PTK2) (Homo sapiens, UniProt Q05397); test: Mass spectral analysis of intact FAK after incubation with compound; format: binding; settings: 1 hr, 10× excess of compound to protein; for modification of FAK (PTK2) by compound, mass spec: intact protein MALDI
Method: Intact FAK (PTK2) was incubated for 1 hr at a 10× fold access of compound IV-29 to protein. 3 ul aliquots of the samples were diluted with 10 ul of 0.1% TFA prior to micro C4 ZipTipping directly onto the MALDI target using Sinapinic acid as the desorption matrix (10 mg/ml in 0.1% TFA:Acetonitrile 50:50). Mass spec analysis was run on intact FAK (PTK2) protein (m/z 146,672 Da), and on FAK that was incubated with compound IV-29 (mw=669.2).

[2] = target: T1, FAK (Homo sapiens, UniProt Q05397); test: FAK biochemical assay (OMNIA kinase assay, pre-activated FAK); settings: FAK=15 nM, ATP=100 μM, 30 min pre-incubation
T1 construct: purchased Invitrogen (Madison, Wis.) M4446
Method: Activities of FAK inhibitors were assessed in an OMNIA® kinase assay (Invitrogen, Carlsbad, Calif.) using pre-activated FAK enzyme. Briefly, a 10× stock of pre-activated FAK enzyme (M4446) from Invitrogen (Madison, Wis.), 1.13×ATP (AS001A) and Y3-Sox conjugated peptide substrate (YP003A) were prepared in 1× kinase reaction buffer consisting of 20 mM Tris, pH 7.5, 5 mM MgCl2, 1 mM EGTA, 5 mM β-glycerophosphate, 5% glycerol (10× stock, KB002A) and 0.2 mM DTT (DS001A). 5 μL of enzyme were pre-incubated in a Corning (#3574) 384-well, white, non-binding surface microtiter plate (Corning, N.Y.) for 30 min at 27° C. with a 0.5 μL volume of 50% DMSO and serially diluted compounds prepared in 50% DMSO. Kinase reactions were started with the addition of 45 μL of ATP/Y3-Sox peptide substrate mix and monitored every 30-90 seconds for 60 minutes at λex360/λem485 in a Synergy^4 plate reader from BioTek (Winooski, Vt.). […] Initial velocity (0 minutes to ˜30 minutes) from each reaction was determined from the slope of a plot of relative fluorescence units vs time (minutes) and then plotted against inhibitor concentration to estimate IC50 from log [Inhibitor] vs Response, Variable Slope model in GraphPad Prism from GraphPad Software (San Diego, Calif.). […]

[3] = tested on: ERK; test: cKIT washout assay, downstream signaling (ERK phosphorylation); format: cell-based; settings: GIST882 cell line, 1 micromolar, 90 minutes
Method: The next day cells were treated with 1 uM compound diluted in complete media for 90 minutes. After 90 minutes, the media was removed and cells were washed with compound-free media. Cells were washed every 2 hours and resuspended in fresh compound-free media. […] Protein concentrations were measured and 10 ug total protein lysate was loaded in each lane. C-kit phosphorylation was assayed by western blot with pTyr (4G10) antibody and total kit antibody from Cell Signaling Technology.
Sorafenib and XVIII-11 were tested for cellular activity in a GIST882 cell line at 1 micromolar. The results are depicted in FIGS. 2a and 2b where it is shown that XVIII-11 maintained c-KIT enzyme inhibition in […] cells after “washout” for at least 8 hours. […] In order to understand whether there was a prolonged inhibition with the irreversible inhibitor the cells were washed free of compound.

[4] = tested on: CKIT; test: cKIT washout assay in GIST882 cells (C-kit phosphorylation, western blot); format: cell-based
Method: GIST882 cells (See, Bauer et al., Cancer Research, 66(18):9153-9161 (2006)) were seeded in a 6 well plate at a density of 8×10^5 cells/well in complete media. The next day cells were treated with 1 uM compound diluted in complete media for 90 minutes. After 90 minutes, the media was removed and cells were washed with compound-free media. Cells were washed every 2 hours and resuspended in fresh compound-free media. Cells were collected at specified time points, lysed in Cell Extraction Buffer (Invitrogen FNN0011) supplemented with Roche complete protease inhibitor tablets (Roche 11697498001) and phosphatase inhibitors (Roche 04 906 837 001) and lysates were sheared by passing through a 28.5 gauge syringe 10 times each. Protein concentrations were measured and 10 ug total protein lysate was loaded in each lane. C-kit phosphorylation was assayed by western blot with pTyr (4G10) antibody and total kit antibody from Cell Signaling Technology.
Sorafenib and XVIII-11 were tested for cellular activity in a GIST882 cell line at 1 micromolar. The results are depicted in FIGS. 2a and 2b where it is shown that XVIII-11 maintained c-KIT enzyme inhibition in […] cells after “washout” for at least 8 hours. […] In order to understand whether there was a prolonged inhibition with the irreversible inhibitor the cells were washed free of compound. For the reversible inhibitor, Sorafenib, the inhibitory activity of cKIT and downstream signaling was overcome whereas the irreversible inhibition of XVIII-11 persisted for at least 8 hours.

Sequence of FAK (PTK2) (Q05397 whole entry): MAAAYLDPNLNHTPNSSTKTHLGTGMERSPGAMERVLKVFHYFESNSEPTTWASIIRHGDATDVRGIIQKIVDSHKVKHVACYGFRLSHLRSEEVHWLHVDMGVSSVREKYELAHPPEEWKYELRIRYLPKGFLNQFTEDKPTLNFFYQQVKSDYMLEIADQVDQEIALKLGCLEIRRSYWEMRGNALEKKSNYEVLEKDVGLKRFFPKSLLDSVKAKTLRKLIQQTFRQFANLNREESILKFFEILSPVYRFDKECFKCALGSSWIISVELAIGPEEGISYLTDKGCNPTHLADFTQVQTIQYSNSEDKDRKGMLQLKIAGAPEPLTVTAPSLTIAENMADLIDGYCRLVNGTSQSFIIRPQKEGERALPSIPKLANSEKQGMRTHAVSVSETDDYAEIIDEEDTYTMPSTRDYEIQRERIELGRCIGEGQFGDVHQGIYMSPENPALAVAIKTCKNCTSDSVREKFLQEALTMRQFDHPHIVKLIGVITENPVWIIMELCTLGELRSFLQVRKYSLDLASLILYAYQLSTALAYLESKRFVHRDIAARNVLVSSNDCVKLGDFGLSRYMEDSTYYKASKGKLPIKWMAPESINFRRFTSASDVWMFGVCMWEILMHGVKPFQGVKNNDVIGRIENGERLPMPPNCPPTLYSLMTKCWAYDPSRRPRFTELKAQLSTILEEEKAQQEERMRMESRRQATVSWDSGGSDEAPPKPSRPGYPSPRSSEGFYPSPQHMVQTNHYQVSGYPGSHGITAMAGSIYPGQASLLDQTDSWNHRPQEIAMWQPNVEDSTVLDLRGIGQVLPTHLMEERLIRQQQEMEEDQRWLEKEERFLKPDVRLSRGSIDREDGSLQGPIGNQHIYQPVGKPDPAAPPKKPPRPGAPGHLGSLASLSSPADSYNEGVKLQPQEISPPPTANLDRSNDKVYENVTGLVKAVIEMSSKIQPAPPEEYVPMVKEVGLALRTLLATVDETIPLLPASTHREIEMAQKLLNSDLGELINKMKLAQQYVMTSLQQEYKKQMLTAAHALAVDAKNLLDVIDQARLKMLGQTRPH
T1 sequence (Q05397 whole entry): as above

Row | SMILES | positive shift of centroid mass of FAK [1] | modification of FAK (PTK2) by compound, mass spec [1] | IC50 [2] | inhibition of downstream signaling of ERK [3] | inhibitory activity of cKIT and downstream signaling after washout ([4]; 1 uM for 90 minutes, then washed free of compound) | inhibition of cKIT autophosphorylation ([4]; GIST882 cell line, 1 micromolar, 90 minutes)
1 | C=CC(=O)Nc1ccc(C(=O)NC2(C)CCN(c3ccc(Nc4ncc(Cl)c(Nc5ccccc5C(=O)NC)n4)c(OC)c3)CC2)cc1 [IV-29, 2-(2-(4-(4-(4-acrylamidobenzamido)-4-methylpiperidin-1-yl)-2-methoxyphenylamino)-5-chloropyrimidin-4-ylamino)-N-methylbenzamide] | about 365 Da | almost complete modification of FAK | 5.24 nM |  |  | 
2 | C=CC(=O)N1CCC2(CCCN(c3ccc(Nc4ncc(Cl)c(Nc5ccccc5C(=O)NC)n4)c(OC)c3)C2)CC1 [IV-30, 2-{2-[4-(9-Acryloyl-2,9-diaza-spiro[5.5]undec-2-yl)-2-methoxy-phenylamino]-5-chloro-pyrimidin-4-ylamino}-N-methyl-benzamide] |  | did not modify FAK | 5.89 nM |  |  | 
3 | CNC(=O)c1cc(Oc2ccc(NC(=O)Nc3ccc(Cl)c(C(F)(F)F)c3)cc2)ccn1 [Sorafenib, sorafenib] |  |  |  | inhibited | overcome | inhibited cKIT autophosphorylation
